From the NIST ThermoML archive (doi:10.1016/j.jct.2017.05.001)

Experiment: wn = mass fraction of the nth substance listed
Settings: Liquid; for mass density: Vibrating tube method

OCCNCCO [diethanolamine] + O
viscosity [mPa·s]
Settings | w1 = 0.0993 | w1 = 0.1 | w1 = 0.2 | w1 = 0.3 | w1 = 0.3002 | w1 = 0.3997 | w1 = 0.4
313.15 K, 30000 kPa, Falling or rolling sphere viscometry | 0.9226 | – | 1.312 | – | 2.022 | 3.303 | –
313.15 K, 40000 kPa, Falling or rolling sphere viscometry | 0.9253 | – | 1.318 | – | 2.039 | 3.361 | –
313.15 K, 60000 kPa, Falling or rolling sphere viscometry | 0.9334 | – | 1.335 | – | 2.08 | 3.438 | –
313.15 K, 80000 kPa, Falling or rolling sphere viscometry | 0.9414 | – | 1.353 | – | 2.119 | 3.538 | –
313.15 K, 100000 kPa, Falling or rolling sphere viscometry | 0.9509 | – | 1.371 | – | 2.158 | 3.625 | –
333.15 K, 100 kPa, Concentric cylinders viscometry | – | 0.64 | 0.871 | 1.248 | – | – | 1.864
333.15 K, 100 kPa, Falling or rolling sphere viscometry | 0.6268 | – | 0.8581 | – | 1.247 | 1.885 | –
333.15 K, 5000 kPa, Falling or rolling sphere viscometry | 0.6258 | – | 0.8575 | – | 1.243 | 1.872 | –
333.15 K, 10000 kPa, Falling or rolling sphere viscometry | 0.6274 | – | 0.8602 | – | 1.248 | 1.886 | –
333.15 K, 15000 kPa, Falling or rolling sphere viscometry | 0.6269 | – | 0.8632 | – | 1.254 | 1.9 | –
333.15 K, 20000 kPa, Falling or rolling sphere viscometry | 0.6303 | – | 0.8673 | – | 1.258 | 1.912 | –
333.15 K, 25000 kPa, Falling or rolling sphere viscometry | 0.6312 | – | 0.8717 | – | 1.265 | 1.896 | –
333.15 K, 30000 kPa, Falling or rolling sphere viscometry | 0.6339 | – | 0.8763 | – | 1.271 | 1.943 | –
333.15 K, 40000 kPa, Falling or rolling sphere viscometry | 0.6383 | – | 0.8845 | – | 1.283 | 1.973 | –
333.15 K, 60000 kPa, Falling or rolling sphere viscometry | 0.6452 | – | 0.8989 | – | 1.312 | 2.029 | –
333.15 K, 80000 kPa, Falling or rolling sphere viscometry | 0.6532 | – | 0.9136 | – | 1.337 | 2.086 | –
333.15 K, 100000 kPa, Falling or rolling sphere viscometry | 0.6623 | – | 0.9264 | – | 1.365 | 2.136 | –

mass density [kg/m3]
Settings | w1 = 0.0993 | w1 = 0.2 | w1 = 0.3002 | w1 = 0.3997
313.15 K, 30000 kPa | 1015.1 | 1025.8 | 1037.1 | 1048.7
313.15 K, 40000 kPa | 1019.1 | 1029.7 | 1040.7 | 1052.3
313.15 K, 50000 kPa | 1022.8 | 1033.2 | 1044.1 | 1055.6
313.15 K, 60000 kPa | 1026.6 | 1036.9 | 1047.6 | 1059
313.15 K, 70000 kPa | 1030.4 | 1040.4 | 1051 | 1062.2
313.15 K, 80000 kPa | 1033.9 | 1043.8 | 1054.3 | 1065.4
313.15 K, 90000 kPa | 1037.3 | 1047.1 | 1057.5 | 1068.5
313.15 K, 100000 kPa | 1040.9 | 1050.6 | 1060.8 | 1071.6
313.15 K, 110000 kPa | 1044.4 | 1053.9 | 1063.9 | 1074.7
313.15 K, 120000 kPa | 1047.7 | 1057.1 | 1067.1 | 1077.7
313.15 K, 130000 kPa | 1051.1 | 1060.3 | 1070.2 | 1080.7
313.15 K, 140000 kPa | 1054.4 | 1063.5 | 1073.3 | 1083.6
333.15 K, 100 kPa | 993.4 | 1004.2 | 1015.4 | 1026.6
333.15 K, 500 kPa | 993.7 | 1004.4 | 1015.5 | 1026.8
333.15 K, 1000 kPa | 993.9 | 1004.6 | 1015.7 | 1027
333.15 K, 2000 kPa | 994.3 | 1005 | 1016.2 | 1027.4
333.15 K, 5000 kPa | 995.5 | 1006.2 | 1017.3 | 1028.5
333.15 K, 10000 kPa | 997.6 | 1008.2 | 1019.3 | 1030.4
333.15 K, 15000 kPa | 999.6 | 1010.2 | 1021.2 | 1032.3
333.15 K, 20000 kPa | 1001.6 | 1012.1 | 1023.1 | 1034.2
333.15 K, 30000 kPa | 1005.7 | 1016 | 1026.9 | 1037.8
333.15 K, 40000 kPa | 1009.7 | 1020 | 1030.6 | 1041.6
333.15 K, 50000 kPa | 1013.4 | 1023.6 | 1034.1 | 1045
333.15 K, 60000 kPa | 1017.2 | 1027.1 | 1037.7 | 1048.4
333.15 K, 70000 kPa | 1020.9 | 1030.8 | 1041.1 | 1051.8
333.15 K, 80000 kPa | 1024.5 | 1034.2 | 1044.4 | 1055
333.15 K, 90000 kPa | 1028 | 1037.5 | 1047.7 | 1058.2
333.15 K, 100000 kPa | 1031.5 | 1041 | 1051.1 | 1061.5
333.15 K, 110000 kPa | 1034.9 | 1044.2 | 1054.3 | 1064.6
333.15 K, 120000 kPa | 1038.4 | 1047.7 | 1057.5 | 1067.8
